Measured values reported in patent US12121498B2 (priority 2018, dated 2024).

Columns and labels:
[1] = in vivo; format: in vivo, SD rats; conditions: rats; for concentration at 5 min / concentration at 15 min / concentration at 30 min / concentration at 1 h / concentration at 2 h / concentration at 4 h: SD, rat, in vivo, iv, average, read-out: Drug concentrations in brain tissue; for concentration at 5 min: 5 min after administration; for concentration at 15 min: 15 min after administration; for concentration at 30 min: 30 min after administration; for concentration at 1 h: 1 h after administration; for concentration at 2 h: 2 h after administration; for concentration at 4 h: 4 h after administration
Method: 1. Comparative Assay for the Distribution of Compound XA-1-7 and Dipropofol (3,3′,5,5′-Tetraisopropyl Biphenyl-4,4′-Diol) in the Brain Tissue of Rats after Intravenous Administration
72 SD rats, each weighing 200 to 220 g, were randomly divided into 12 groups (6 per group at a time), and fasted for 12 hours before administration. Compound XA-1-7 or dipropofol was injected intravenously at a dose of 45 mg/kg, and the rats were sacrificed at 5 min, 15 min, 30 min, 1 h, 2 h, and 4 h after administration, immediately after which the brain tissue was removed, rinsed with ice-cold distilled water, blotted up, and cryopreserved at −40° C. The concentrations of Compound XA-1-7 or dipropofol in the brain tissue of rats at different time points after administration were measured by LC-MS/MS.

[2] = target: GABAA, Chloride Channel, TBPS; assay: Radioligand ([35S]TBPS)-receptor competitive binding assay for GABAA receptor; design: species or system Rat; conditions: for IC50: [35S]TBPS, test concentration 30, 10, 3, 1, 0.3 uM; for Affinity for the GABAA receptor: result in words, compared with dipropofol

SMILES | concentration at 5 min ([1]; i.v. 45 mg/kg) [ng/g] | concentration at 15 min ([1]; i.v. 45 mg/kg) [ng/g] | concentration at 30 min ([1]; i.v. 45 mg/kg) [ng/g] | concentration at 1 h ([1]; i.v. 45 mg/kg) [ng/g] | concentration at 2 h ([1]; i.v. 45 mg/kg) [ng/g] | concentration at 4 h ([1]; i.v. 45 mg/kg) [ng/g] | Concentration in the brain tissue relative to that of the dipropofol ([1]; 5 minutes after intravenous injection, 45 mg/kg) | AUC0-4 h in the brain tissue relative to that of the dipropofol ([1]; i.v. 45 mg/kg) | Peak time of the concentration in the brain tissue ([1]; i.v. 45 mg/kg) [min] | Delivering speed into the brain and level in the brain compared with dipropofol ([1]; intravenous administration at the same dosage, result in words) | IC50 [2] [nM] | Affinity for the GABAA receptor [2]
CCCc1cc(-c2cc(C(C)C)c(O)c(C(C)C)c2)cc(CCC)c1O [Compound 1, 3,5-diisopropyl-3′,5′-dipropyl-[1,1′-biphenyl]-4,4′-diol] | 37600 | 39600 | 38100 | 33900 | 24600 | 6870 | about 3 times | about 1.36 times | 15 | significantly higher | 1820 | high affinity
CCCc1cc(-c2cc(C(C)C)c(O)c(C(C)C)c2)cc(C(C)C)c1O [Compound 2, 3,3′,5-triisopropyl-5′-propyl-biphenyl-4,4′-diol] | – | – | – | – | – | – | – | – | – | – | 2110 | high affinity
CCCc1cc(-c2cc(CCC)c(O)c(C(C)C)c2)cc(CCC)c1O [Compound 3, 3-isopropyl-3′,5,5′-tripropyl-biphenyl-4,4′-diol] | – | – | – | – | – | – | – | – | – | – | 2690 | high affinity
CC(C)c1cc(-c2cc(C(C)C)c(O)c(C(C)C)c2)cc(C(C)C)c1O [Dipropofol, 3,3′,5,5′-tetraisopropylbiphenyl-4,4′-diol, reference compound] | 12800 | 24100 | 32500 | 26600 | 17900 | 5520 | – | – | 30 | – | 2060 | –
